Test results: patent publication US5994396A, “Furansulfonic acid derivatives and pharmaceutical compositions containing the same” (priority 1998, dated 1999)
Where a name gives a salt, the structure may show the parent alone.

Assays:
[1] = test system: tumor necrosis factor-α (TNFα) release, THP-1 cells; test: Reduction of LPS and β-amyloid-induced increased release of tumor necrosis factor-α in THP-1 cells (ELISA); type: cell-based; settings: Homo sapiens, 100 μM test compound with LPS and Aβ(25-35), 48 hours, read-out: reduction of β-amyloid-induced increased release of tumor necrosis factor-α compared to the controls
Description: (§1) THP-1 cells, a human monocyte cell line from American Type Culture Collection, were grown in RPMI-1640 medium plus 10% fetal bovine serum (FBS, not heat-inactivated) in T-flasks. The medium was changed every two days by spinning down (800 rpm, 5 minutes) the cells, replating cells and adding fresh medium. Alternatively, the cultures were maintained by the addition of fresh medium. The cultures were maintained at a cell concentration ranging from between 1×10^5 and 1×10^6 cells/mL. Because sera may contain unknown factors which can affect macrophage/monocyte IL-1 production, the FBS was reduced to 5% for 24 hours. The FBS was further reduced to 2% over two days prior to starting each experiment. The cells were collected by centrifugation and resuspended into 2% FBS. Cell numbers were calculated and cells were plated on 24-well plates (3×10^5 cells/0.6 mL/well). Cells were then treated with LPS (0.5 μg/ml or 0-10 μg/ml for LPS dose-responseexperiments) alone or in combination with Aβ peptides (5 μM or 0.05-5 μM for dose-response experiments). When determining the effect of the test compounds on IL-1β, IL-6 and TNFα release, 100 μM of the test compound was added with the LPS and Aβ(25-35) and this mixture was incubated for 48 hours prior to performing ELISA.
(§2) IL-1β, IL-6 and TNFα secretions into medium by LPS-stimulated THP-1 cells, in the presence or absence of amyloid peptides and a test compound, were assayed with a commercially available ELISA kit (R & D Systems). Briefly, a microtiter plate coated with a murine monoclonal antibody to human IL-1β, IL-6, or TNFα was supplied by the manufacturer. Standards and samples were pipetted into the wells and any IL-1β, IL-6 or TNFα present was bound by the immobilized antibody. Unbound proteins were washed away and a horseradish peroxidase-linked polyclonal antibody specific for IL-1β, IL-6 or TNFα was added to the wells to "sandwich" the IL-1β, IL-6 and TNFα bound in the initial step. After washing to remove any unbound antibody-enzyme reagent, a substrate solution (1:1 hydrogen peroxide:tetramethylbenzidine, v/v) was added to the wells and color developed in proportion to the amount of IL-1β, IL-6 or TNFα bound in the initial step. Color development was stopped with 2 N sulfuric acid and the optical density of the standard and the test samples was measured at 450 nm. The amounts of IL-1β, IL-6 or TNFα present in the samples were calculated based upon a standard curve. Assays were run in quadruplicate wells.

[2] = test system: MRL/MpJfas^1pr mutant mice; test: Reduction of cognitive deficits in autoimmune mice (T-maze); type: in vivo, mouse; settings: Fas^1pr mice; 100 mg/kg p.o. daily from 2 to 4 months of age (9 weeks); versus untreated mutant mice
Text: MRL/MpJfas^1pr ("mutant mice" or "Fas^1pr ") strains of mice have been described as useful models of Lupus due to their autoimmune lymphoproliferatory pathology. In particular, the mutant mice show a cognitive deficit at approximately four months of age, which is not observed at two months of age. See, for example, Forster et al., 1988, Behav. Neural Biology, 49, 139-151.
In the experiment, wild-type ("++") and Fas^1pr strains of mice were received at 4 to 8 weeks of age (n=10-11). The compound of Example 1 above or 1% methylcellulose (100 mg/kg p.o.) was administered daily from 2 months of age to 4 months of age (a total of 9 weeks). After reaching 4 months of age, the mice were tested for cognitive ability in a T-maze. This behavioral task measures discrimination, active avoidance and acquisition skills (acquisition is the number of avoidances in the first 5 test trials).

[3] = test system: interleukin-6 (IL-6) release, THP-1 cells; test: Reduction of LPS and β-amyloid-induced increased release of interleukin-6 in THP-1 cells (ELISA); type: cell-based; settings: Homo sapiens, 100 μM test compound with LPS and Aβ(25-35), 48 hours, read-out: reduction of β-amyloid-induced increased release of interleukin-6 compared to the controls
Description: as §1, §2

[4] = test system: rats injected with Aβ(25-35); test: Reduction of locomotor impairment due to Aβ-peptide injected into substantia nigra; type: in vivo, Sprague-Dawley rat; settings: oral 1-10 mg/kg one hour before and three hours post 20 μg Aβ(25-35) injection; tested one week after treatment
Description: Male Sprague-Dawley rats (250-400 g) were given injections of 20 μg of Aβ(25-35) into their substantia nigra. Prior to the injection, the rats were fasted overnight and then each received an oral treatment of the test compound (1-10 mg/kg) dissolved in aqueous 1% methyl cellulose or the vehicle alone, one hour before and three hours post the Aβ-peptide stereotaxic injection. One week after treatment, the rats were dosed s.c. with 0.5 mg/kg apomorphine (dissolved in 0.1% vitamin C in isotonic saline) and the circling reflex was monitored using a Rotorat computerized behavioral monitoring apparatus for the time period between 15 and 30 minutes of being placed in the arena. Impairment of the animals due to Aβ-peptide was determined by measuring the number of rotations over the 15 minute period.

[5] = test system: interleukin-1β (IL-1β) release, THP-1 cells; test: Reduction of LPS and β-amyloid-induced increased release of interleukin-1β in THP-1 cells (ELISA); type: cell-based; settings: Homo sapiens, 100 μM test compound with LPS and Aβ(25-35), 48 hours, read-out: reduction of β-amyloid-induced increased release of interleukin-1β compared to the controls
Description: as §1, §2

[6] = test system: rat embryonic hippocampal primary neuronal/astrocytic cultures; test: Protection against Aβ(25-35)-induced neuronal cell loss; type: cell-based, Sprague Dawley rat; settings: Neuron, 100 μM test compound, 30 μM Aβ(25-35), 96 hours treatment, morphologically viable neurons counted, read-out: reduction of Aβ(25-35)-induced neuronal cell loss compared to the controls
Description: Sprague Dawley rat hippocampus of 18-day-gestation embryos was excised and then dissociated by trituration to prepare primary neuronal/astrocytic cultures. Cells (3×10^5) were plated on 35 mm poly-D-lysine-coated plates containing Eagle's minimum essential medium supplemented with 10% fetal bovine serum. After 3-5 hours, the original medium was removed and replaced with 1 mL of fresh medium. Cultures were maintained at 37° C. in a 5% CO2 /95% air, humidified incubator.
To the cells (7 DIV) was added 30 μM of Aβ(25-35) dissolved in dH2 O (stored at -20° C.) and 100 μM of the test compound in 1% methylcellulose. Controls were also conducted without the test compound. The percentage of morphologically viable neurons was determined counting the number of viable neurons after 96 hours treatment compared to the number of neurons before treatment in the same premarked culture regions (three regions/culture). The number of wells was n=6 per treatment condition.

synthetic Aβ(1-40) = target: T1, synthetic Aβ(1-40) (Homo sapiens, UniProt P05067); test: Inhibition of Aβ(1-40) beta-pleated sheet formation (thioflavin T fluorescence); type: biochemical; settings: compound 10 μM; ThT 3 μM in PBS pH 6.0; Aβ(1-40) 3 μg; fluorescence increase over 12-24 hours; read-out: percent inhibition of Aβ(1-40) beta-pleated sheet formation compared to the controls
T1 construct: particularly the aggregated fibrils of synthetic Aβ(1-40)
Description: Thioflavin T (ThT) is known to rapidly associate with beta-pleated sheets, particularly the aggregated fibrils of synthetic Aβ(1-40). This association gives rise to a new excitation maximum at 440 nm and to enhanced emission at 490 nm.
The experiments were performed using a CytoFluor II fluorescence plate reader having the following parameters: […]
Into each well was aliquoted 95 μl of ThT (3 μM) prepared in PBS (pH 6.0), 2 μL of the compound to be tested (10 μM) prepared with 0.05% of methylcellulose in PBS (pH 6.0), and 3 μL of Aβ(1-40) (3 μg) prepared with dH2 O. The fluorescence measurement began when the Aβ(1-40) was added and continued for a total of 12-24 hours. The percent inhibition of beta-pleated sheet formation was calculated from the relative fluorescence unit increase over the 12-24 hours between aggregation in the presence and in the absence of the test compounds.

T1 sequence (P05067 672-711): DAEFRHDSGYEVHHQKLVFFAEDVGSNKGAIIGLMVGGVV

| Compound | inhibition at 100 µM [1] | acquisition in T-maze (FIG. 1) [2] | avoidance in T-maze (FIG. 2) [2] | inhibition at 100 µM [3] | locomotor impairment (apomorphine-induced rotations over 15 minute period) compared to Aβ(25-35)-treated controls [4] | inhibition at 100 µM [5] | inhibition at 100 µM [6] | inhibition at 10 µM (synthetic Aβ(1-40)) |
| --- | --- | --- | --- | --- | --- | --- | --- | --- |
| CCCCNC(=O)c1ccc(S(=O)(=O)[O-])o1.[Na+] [Example 1, N-n-Butyl-5-carbamoylfuran-2-sulfonic Acid Sodium Salt] | ≥ 20% | acquired avoidance skills earlier than untreated mutant mice | reduced avoidance values | ≥ 20% | reduced the locomotor impairment | ≥ 20% | ≥ 60% | ≥ 10% |
| CCCCNC(=O)C=Cc1ccc(S(=O)(=O)O)o1 [Example 5, 5-[2-(N-n-Butylcarbamoyl)eth-1-enyl]-furan-2-sulfonic Acid Sodium Salt] | ≥ 20% | – | – | ≥ 20% | – | ≥ 20% | ≥ 60% | – |
| CC(C)NC(=O)c1ccc(S(=O)(=O)O)o1 [Example 2, N-Isopropyl-5-carbamoylfuran-2-sulfonic Acid Sodium Salt] | ≥ 20% | – | – | ≥ 20% | – | ≥ 20% | ≥ 60% | ≥ 10% |
| CCCCNC(=O)CCc1ccc(S(=O)(=O)O)o1 [Example 6, 5-[2-(N-n-Butylcarbamoyl)ethyl]-furan-2-sulfonic Acid Sodium Salt] | ≥ 20% | – | – | ≥ 20% | – | ≥ 20% | – | ≥ 10% |
